Values belong to the molecule of their own block, whether it stands above or below them. Square brackets hold non-standard residues; d marks the D form. Ends that are not written are not given here. pGlu = O=C1CC[C@@H](C(=O)O)N1
Tests used:
p4373 = experiment: Mimotope vaccination, serum ELISA against p4373; type: in vivo, C57/B16 mice; conditions: peptide-KLH vaccines with alum; FIG. 16
Description: (§1) Inhibiting as well as non-inhibiting peptides were coupled to KLH and injected into mice (wildtype C57/B16 mice; subcutaneous injection into the flank) together with an appropriate adjuvant (aluminium hydroxide). Animals were vaccinated 3-6 times in biweekly intervals and sera were taken biweekly as well. Titers to injected peptides, as well as to an irrelevant peptide were determined with every serum. Furthermore, titers against the recombinant human Aβ protein, and against original peptides were determined respectively. In general sera were analysed by reaction against peptides coupled to Bovine Serum Albumin (BSA) and recombinant full length proteins which were immobilised on ELISA plates. Titers were determined using anti mouse IgG specific antibodies. For detailed results see FIGS. 15, 16 and 17 respectively and FIGS. 23, 24 and 25 respectively.
(§2) Female C57/b16 mice, 5-6 mice per group, were subcutaneously immunized with 30 μg peptide coupled to KLH. Control groups were administered original epitope-KLH conjugates respectively. As adjuvant alum was used (always 1 mg per mouse). […] The in vitro ELISA assay to determine the antibody titer was performed with sera of single mice after each vaccination in a two week interval (see FIGS. 15 and 16 respectively). The wells of the ELISA plate were coated with mimotope-BSA conjugate and an irrelevant peptide-BSA conjugate (negative control). […]

p4371 = experiment: Mimotope vaccination, serum ELISA against p4371; type: in vivo, C57/B16 mice; conditions: peptide-KLH vaccines with alum; FIG. 16
Description: as §1, §2

[1] = molecular target: monoclonal antibody MV-003; experiment: ELISA on peptide-BSA; code 3 = strong binding, OD halfmax 1:>60000
[2] = molecular target: monoclonal antibody MV-003; experiment: inhibition ELISA, competitor coated original epitope p4373; code 2 = strong inhibition (as original epitope)

Molecule: EFRHDS-C (EFRHDSC) [p4371]
immune response / titers against p4373 (p4373): mount relevant titers

Molecule: p(E)FRHDS-C ([pGlu]FRHDSC) [p4373, non-mimotope peptide, pyroglutamate-modified aa3-8 of Aβ]
immune response / titers against p4371 (p4371): mount relevant titers

dilution factor of the parental antibody at OD halfmax (1:X) (dilutionfactor(1:x)) [1]: > 60000
OD at 10 ug peptide relative to OD of original peptide (inhibition ELISA) [2]: < 5 fold
B1: p4728 (peptide)
peptide: IRWDTSLC
